According to PMC3425516 (PLoS ONE, 2012):
Several values for one entry are separate records, joined by “and”; a condition that tells them apart may be missing. Equal values may be shown once.

Experiments:
HCT116 cells [1] = test: Sulforhodamine B cell growth assay; format: cell-based; settings: Homo sapiens, HCT-116, 48 h
Description: HCT116, MDAMB231 and NCI-ADR cells were seeded in 96-well plates in medium with 5% fetal bovine serum overnight. Cells were fixed with 10% trichloroacetic representing cell population at the time of drug treatment (T 0). […] Excess Sulforhodamine B was washed away by 1% acetic acid and dye-containing cells were lysed with 10 mmol/L Trizma base. […] By measuring time zero (T 0), control growth (C), and cell growth in the presence of the drug (Tx), the percentage growth was calculated. Percentage growth inhibition was calculated as 100-[(Tx–T 0)/(C-T 0)]×100.

[2] = system: human HCT116 colorectal cancer xenograft; test: HCT116 xenograft, tumor growth delay to 1,200 mm^3 endpoint; format: in vivo, nude mice
Description: The human HCT116 colorectal adenocarcinoma cells used for implantation were harvested during log phase growth and resuspended in phosphate-buffered saline at 5×10^7 cells/mL. Each mouse was injected s.c. in the right flank with 1.0×10^7 cells (0.2 mL cell suspension). Tumors were monitored twice weekly and then daily as their volumes approached 1,200 mm^3. Tumor size, in mm^3, was calculated from: where w = width and l = length in mm of the tumor. Tumor volume = (w^2×l)/2.
The logrank test was used to determine the statistical significance of the difference between the TTE values of two groups, except any NTR deaths. […] The two-tailed statistical analyses were conducted at P = 0.05. Kaplan-Meier plots show the percentage of animals remaining in the study versus time. The Kaplan-Meier plots use the same data set as the logrank test.
(§1) Once a tumor was palpable with the size of approximately 55 mm^3, mice were randomized into vehicle control and treatment groups (8 mice per group). Control mice received the vehicle (0.5% carboxymethyl cellulose +0.1% Tween 80). Tumors in all 3 groups were allowed to reach an endpoint volume of 1,200 mm^3.

[3] = Body weight and adverse effects in xenograft study; format: in vivo, nude mice; settings: HCT116 xenograft mice, oral daily treatment
Description: (A) Tumors were measured regularly and growth delay was calculated for treatment groups relative to control tumors (TGD). (B) Kaplan-Meier survival analysis was based on the tumor growth endpoint. (C) Inhibition of tumor growth curves represented a mean±SEM and percentage change in mean tumor volume (percent TGI). (D) Body weights were measured daily during the first week and then 2 times per week. The body weight ratio was calculated relative to the baseline measurement.
as §1

HCT116 cells [4] = test: Flow cytometry cell cycle / sub-G1 analysis; format: cell-based, human
Description: After centrifugation, cells were incubated in 0.1 mol/L phosphate-citric acid buffer [0.2 mol/L NaHPO4, 0.1 mol/L citric acid (pH 7.8)] for 20 min at room temperature. Then, the cells were centrifuged and resuspended with 0.5 mL PI solution containing Triton X-100 (0.1%, v/v), RNase (100 µg/mL), and PI (80 µg/mL). DNA content was analyzed with the FACScan and CellQuest software (Becton Dickinson).

HCT116 cells [5] = test: Western blot histone H3 and α-tubulin acetylation; format: cell-based, human; settings: 24 h
Description: (§2) For total lysate, cells were lysed with the 120 µL ice-cold lysis buffer [10 mmol/L Tris-HCl (pH 7.4), 150 mmol/L NaCl, 1 mmol/L EGTA, 1 mmol/L phenylmethylsulfonyl fluoride, 10 µg/mL aprotinin, 10 µg/mL leupeptin, 1 mM sodium orthovandate, 1 mM NaF, and 1% Triton X-100]. Cell lysates were centrifuged at 13,000 rpm for 30 min. For Western blot analysis, the amount of protein (40 µg) was separated by electrophoresis in a 10% or 15% polyacrylamide gel and transferred to a polyvinylidene difluoride (PVDF) membrane. After 1 h incubation at room temperature in PBS/5% nonfat milk, the membrane was washed with PBS/0.1% and incubated with the indicated antibodies at 4°C overnight. After washings with PBS/0.1% Tween 20, the corresponding secondary antibodies were applied to the membranes for 1 h at room temperature. The membranes were then washed with PBS/0.1% Tween 20 and the detection of signal was done with an enhanced chemiluminescence detection kit (Amersham, Buckinghamshire, UK).

HCT116 xenograft tumors = test: Western blot of HCT116 xenograft tumor tissues; format: in vivo, nude mice; settings: 200 mg/kg oral daily for 7 days
Description: as §2, with “For Western blot analysis, the amount of protein (40 µg) was separated by electrophoresis in a 10% or 15% polyacrylamide gel and transferred to a polyvinylidene difluoride (PVDF) membrane.” left out
as §1

GI50 (HCT116 cells [1]): 820 ± 70 nM
SMILES: O=C(CCCCCCC(=O)Nc1ccccc1)NO [SAHA, suberoylanilide hydroxamic acid, reference compound]
Median TTE ([2]; 200 mg/kg po qd to endpoint 1200 mm^3): 27.0 days
No. of CR (complete regression) ([2]; 200 mg/kg po qd, 8 mice per group): 0
%TGD (tumor growth delay) ([2]; 200 mg/kg po qd, [(T-C)/C]×100): 63%
T-C ([2]; 200 mg/kg po qd, median TTE treated versus control): 10.0 days and 10 days
body weight and other adverse effects [3]: No significant body weight difference or other adverse effects
sub-G1 population (flow cytometry) (HCT116 cells [4]): weaker effect and delayed cytotoxicity
α-tubulin acetylation (western blot) (HCT116 cells [5]): exhibited more potent α-tubulin acetylation than MPT0E028
expression of caspase 3, PARP, acetyl-histone H3 and acetyl-tubulin in xenograft tumors (HCT116 xenograft tumors): acetyl-µ-tubulin were found more profoundly
